In series [1] the test system is Rattus norvegicus. Nature of the series: Toxicity in po dosed Wistar rat assessed as gastric irritation at 10 to 50 mg/kg, po. It counts as organism-based, Stomach. Also noted: dose 10-50 mg/kg, route oral. As to conditions: in vivo.
The test system of series [2] is Rattus norvegicus. The series is described as follows: Antiinflammatory activity in Wistar rat assessed as reduction in carrageenan-induced paw edema at 50 mg/kg, po treated 2 hrs before carrageenan challenge measured after 3 hrs. The format is functional.
Series [3] deals with Rattus norvegicus. The series is described as follows: Antiinflammatory activity in Wistar rat assessed as reduction in carrageenan-induced paw edema at 10 mg/kg, po treated 2 hrs before carrageenan challenge measured after 3 hrs. It counts as functional. For orientation: In the carrageenan paw model, swelling and tenderness develop within hours.
In series [4] the test system is Rattus norvegicus. The series is described as follows: Antiinflammatory activity in Wistar rat assessed as reduction in carrageenan-induced paw edema at 20 mg/kg, po treated 2 hrs before carrageenan challenge measured after 3 hrs. The format is functional.
Series [5] has as its system Rattus norvegicus. The series is described as follows: Toxicity in po dosed Wistar rat assessed as gastric irritation at 20 to 100 mg/kg, po. It counts as organism-based, Stomach. The settings on record: in vivo. Also on record: dose 20-100 mg/kg, route oral.
Series [6] concerns Rattus norvegicus. Nature of the series: Antiinflammatory activity in Wistar rat assessed as reduction in carrageenan-induced paw edema at 100 mg/kg, po treated 2 hrs before carrageenan challenge measured after 3 hrs. The format is functional.
Series [7] relates to Rattus norvegicus. The series is described as follows: Antiinflammatory activity in po dosed Wistar rat assessed as reduction in carrageenan-induced paw edema treated 2 hrs before carrageenan challenge measured after 3 hrs. The format is functional.
The nature of series [8]: Toxicity in po dosed Wistar rat. The settings on record: in vivo. It counts as organism-based.

In general, inhibition in vivo refers to how much of the control response was suppressed. As for `CCCCC1C(=O)N(c2ccccc2)N(c2ccccc2)C1=O` [PHENYLBUTAZONE], the Activity result in the series on Rattus norvegicus [1] is “Toxic”. The inhibition in vivo at 50 mg/kg in the series with Rattus norvegicus [2] stood at 51%. The inhibition in vivo at 10 mg/kg with Rattus norvegicus [3] came to 24%.

Turning to `CC1(C)Cc2cc(CC(N)=O)ccc2O1`, in the series on Rattus norvegicus [4], the inhibition in vivo at 20 mg/kg is 15%. Also, in the series on Rattus norvegicus [5], the Activity result was “Toxic”. In addition, the inhibition in vivo at 100 mg/kg in the series on Rattus norvegicus [6] was found to be 20%.

In the case of `CC1(C)Cc2cc(CC(N)=O)cc(Cl)c2O1`, the inhibition in vivo at 20 mg/kg in the series with Rattus norvegicus [4] turned out to be 25%. Besides, the Activity entry in the series on Rattus norvegicus [5] is reported as “Toxic”. In the series with Rattus norvegicus [6], the inhibition in vivo at 100 mg/kg stood at 31%.

Regarding `CC1(C)Cc2cc(CC(=O)NO)cc(Cl)c2O1`, the inhibition in vivo at 20 mg/kg in the series with Rattus norvegicus [4] was 7%. Also, the Activity entry in the series with Rattus norvegicus [5] is “Toxic”. In the series on Rattus norvegicus [6], the inhibition in vivo at 100 mg/kg worked out at 13%.

Take `CC1(C)Cc2cc(C(=O)/C=C/C(=O)O)cc(Cl)c2O1`: the inhibition in vivo at 20 mg/kg in the series with Rattus norvegicus [4] is 9%. In the series on Rattus norvegicus [5], the Activity result is “Toxic”. Further, in the series on Rattus norvegicus [6], the inhibition in vivo at 100 mg/kg was found to be 3%.

In general, ED50 refers to the dose that gives a 50% effect, or the effect in half of the subjects. The term LD50 denotes the dose at which mortality reaches 50%. Read a high LD50 as a less toxic substance. For the compound `CC(C(=O)O)c1cc(Cl)c2c(c1)CC(C)(C)O2` (configuration not stated), the inhibition in vivo at 20 mg/kg in the series on Rattus norvegicus [4] worked out at 45%. Besides, the ED50 in the series with Rattus norvegicus [7] worked out at 45 mg/kg. In addition, the Activity result in the series with Rattus norvegicus [5] is listed as “Toxic”. In addition, the LD50 in series [8] was 720 mg/kg. The inhibition in vivo at 100 mg/kg in the series with Rattus norvegicus [6] came to 58%.

In the case of `CC1Cc2cc(CC(=O)O)cc(Cl)c2O1` (configuration not stated), in the series on Rattus norvegicus [4], the inhibition in vivo at 20 mg/kg was found to be 20%. Moreover, the Activity entry with Rattus norvegicus [5] is “Toxic”. For the same compound, the inhibition in vivo at 100 mg/kg in the series with Rattus norvegicus [6] stood at 27%.

Take `CC1Oc2c(Cl)cc(CC(=O)O)cc2C1C.NC1CCCCC1` (configuration not stated): the inhibition in vivo at 20 mg/kg in the series with Rattus norvegicus [4] amounted to 24%. Moreover, in the series on Rattus norvegicus [5], the Activity result is “Toxic”. In addition, the inhibition in vivo at 100 mg/kg in the series on Rattus norvegicus [6] came out at 30%.

For `CC1(C)Cc2cc(CC(=O)O)cc(Cl)c2O1`, in the series with Rattus norvegicus [4], the inhibition in vivo at 20 mg/kg was found to be 30%. For the same compound, in the series with Rattus norvegicus [5], the Activity entry is reported as “Toxic”. In addition, the inhibition in vivo at 100 mg/kg in the series on Rattus norvegicus [6] stood at 37%.

`CC1(C)Cc2cc(CC(=O)O)ccc2O1`: in the series with Rattus norvegicus [4], the inhibition in vivo at 20 mg/kg was determined as 25%. Besides, the Activity entry in the series with Rattus norvegicus [5] is “Toxic”. In addition, the inhibition in vivo at 100 mg/kg with Rattus norvegicus [6] stood at 32%.

Consider `CC1Cc2cc(C(C)C(=O)O)cc(Cl)c2O1.NC1CCCCC1` (configuration not stated), for which, in the series with Rattus norvegicus [4], the inhibition in vivo at 20 mg/kg amounted to 35%. In addition, in the series with Rattus norvegicus [5], the Activity entry is listed as “Toxic”. Besides, the inhibition in vivo at 100 mg/kg in the series with Rattus norvegicus [6] is 57%.

Consider `CC1(C)Cc2cc(CCCC(=O)O)cc(Cl)c2O1`, for which the inhibition in vivo at 20 mg/kg in the series with Rattus norvegicus [4] stood at 32%. The Activity result in the series on Rattus norvegicus [5] is given as “Toxic”. The inhibition in vivo at 100 mg/kg in the series with Rattus norvegicus [6] amounted to 32%.

With `CC1(C)Cc2cc(CC(=O)NO)ccc2O1`, the inhibition in vivo at 20 mg/kg in the series with Rattus norvegicus [4] was determined as 5%. Moreover, in the series on Rattus norvegicus [5], the Activity entry is given as “Toxic”. Besides, in the series with Rattus norvegicus [6], the inhibition in vivo at 100 mg/kg stood at 9%.

For `CC1(C)Cc2cc(C(=O)CCC(=O)O)cc(Cl)c2O1`, the inhibition in vivo at 20 mg/kg with Rattus norvegicus [4] stood at 24%. Moreover, the Activity result with Rattus norvegicus [5] is listed as “Toxic”. Also, in the series on Rattus norvegicus [6], the inhibition in vivo at 100 mg/kg came out at 37%.

Consider `CC1Cc2cc(CC(N)=O)cc(Cl)c2O1` (configuration not stated), for which the inhibition in vivo at 20 mg/kg in the series with Rattus norvegicus [4] stood at 2%. Also, the Activity result in the series on Rattus norvegicus [5] was “Toxic”. The inhibition in vivo at 100 mg/kg in the series on Rattus norvegicus [6] stood at 17%.

(Values after ChEMBL document CHEMBL3272194, “Antiinflammatory activity of some 2,3-dihydrobenzofuran-5-acetic acids and related compounds” (J Med Chem, 1976).)
